In ChEMBL document CHEMBL4251582 (Eur J Med Chem, 2018):
pIC50: −log10 of the molar value. One block for each compound: values may come before it.

Key:
MCF7 [1] = test: Cytostatic activity against human MCF7 cells; type: functional, cell-based
[2] = biological target: T1, Prostaglandin G/H synthase 2 (Ovis aries, UniProt P79208); test: Inhibition of ovine COX2 using arachidonic acid as substrate assessed as reduction in PGF2alpha production preincubated for 5 mins followed by substrate addition measured after 2 mins by enzyme immunoassay
T1 sequence (P79208 whole entry): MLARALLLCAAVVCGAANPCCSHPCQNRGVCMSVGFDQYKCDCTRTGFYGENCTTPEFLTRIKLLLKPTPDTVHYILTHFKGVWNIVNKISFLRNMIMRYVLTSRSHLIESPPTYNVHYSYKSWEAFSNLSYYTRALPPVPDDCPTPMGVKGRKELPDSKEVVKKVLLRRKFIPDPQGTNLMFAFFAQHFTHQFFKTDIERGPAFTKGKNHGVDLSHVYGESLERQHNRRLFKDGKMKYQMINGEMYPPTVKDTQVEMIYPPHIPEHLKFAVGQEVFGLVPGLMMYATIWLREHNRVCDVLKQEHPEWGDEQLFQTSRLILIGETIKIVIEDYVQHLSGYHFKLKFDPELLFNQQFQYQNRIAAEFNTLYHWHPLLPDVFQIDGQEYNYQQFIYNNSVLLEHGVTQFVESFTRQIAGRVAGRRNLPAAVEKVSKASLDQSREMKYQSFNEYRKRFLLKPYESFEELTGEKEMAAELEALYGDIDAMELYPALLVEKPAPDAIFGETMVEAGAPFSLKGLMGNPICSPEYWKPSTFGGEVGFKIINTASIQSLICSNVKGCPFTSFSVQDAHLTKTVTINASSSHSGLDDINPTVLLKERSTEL

Ovis aries = species on record: Ovis aries; test: Selectivity index, ratio of IC50 for ovine COX1 to IC50 for ovine COX2
MCF7 [3] = test: Cytotoxicity against human MCF7 cells after 72 hrs by LDH assay; type: functional, cell-based; conditions: MCF7, 72 h
Estrogen receptor [4] = biological target: T2, Estrogen receptor (Homo sapiens, UniProt P03372); test: Binding affinity to estrogen receptor (unknown origin)
T2 sequence (P03372 whole entry): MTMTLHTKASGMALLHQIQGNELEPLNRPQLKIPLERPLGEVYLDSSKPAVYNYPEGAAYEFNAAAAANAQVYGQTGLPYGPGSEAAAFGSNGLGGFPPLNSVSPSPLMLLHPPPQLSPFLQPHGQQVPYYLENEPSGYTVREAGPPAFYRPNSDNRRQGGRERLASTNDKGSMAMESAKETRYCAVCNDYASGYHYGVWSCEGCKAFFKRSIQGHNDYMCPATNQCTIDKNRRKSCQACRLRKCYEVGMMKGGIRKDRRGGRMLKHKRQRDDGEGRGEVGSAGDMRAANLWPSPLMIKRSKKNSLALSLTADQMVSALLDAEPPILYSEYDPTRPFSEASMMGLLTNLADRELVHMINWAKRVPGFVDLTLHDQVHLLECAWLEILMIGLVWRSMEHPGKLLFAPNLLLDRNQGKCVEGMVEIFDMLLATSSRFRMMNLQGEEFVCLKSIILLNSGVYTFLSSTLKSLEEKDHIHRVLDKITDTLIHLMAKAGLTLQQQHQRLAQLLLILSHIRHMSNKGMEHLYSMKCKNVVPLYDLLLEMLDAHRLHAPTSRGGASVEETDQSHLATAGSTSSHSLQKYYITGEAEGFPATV

Homo sapiens [5] = species on record: Homo sapiens; test: Selectivity index, ratio of IC50 for of ERalpha receptor (unknown origin) to IC50 for ERbeta receptor (unknown origin)
MCF7 [6] = test: Antiproliferative activity against human MCF7 cells; type: functional, cell-based
[7] = biological target: T3, Estrogen receptor (Homo sapiens) (UniProt P03372); test: Potency index, ratio of tamoxifen IC50 to compound IC50 for binding affinity to ERalpha receptor (unknown origin)
T3 sequence (whole entry): T2 sequence (P03372 whole entry)

Homo sapiens [8] = species on record: Homo sapiens; test: Ratio of selectivity index for test compound to selectivity index for compound for ERalpha (unknown origin) over ERbeta (unknown origin)
Estrogen receptor [9] = biological target: T2, Estrogen receptor; test: Inhibition of estrogen receptor (unknown origin)

pIC50 (MCF7 [1]): 5.52
Compound: CC/C(=C(\c1ccccc1)c1cnn(OCCCN(C)C)c1)c1ccccc1

pIC50 (MCF7 [1]): 5.57
Compound: CC/C(=C(\c1ccccc1)c1ccc(OCCN(C)C)cc1)c1ccccc1 [TAMOXIFEN]

pIC50 (Estrogen receptor [9]): < 5.00
Compound: CCN(CC)CCOc1ccc(C(=C(C#N)c2ccccc2)c2ccc(OCCN(CC)CC)cc2)cc1

Continued, compound first:

Compound: CCc1c(-c2ccccc2)c2cnn(OCCCN(C)C)c2c2ccccc12
pIC50 (MCF7 [1]): 6.00

Compound: CCCCC(=C(c1ccccc1)c1ccccc1)c1ccc(S(C)(=O)=O)cc1
pIC50 [2]: 7.85 | Ratio IC50 (Ovis aries): > 7140

Compound: CC/C(Cc1ccccc1)=C(\c1ccccc1)c1ccc(OCCN2CCCC2)cc1
pIC50 (MCF7 [3]): 4.90

Compound: CCC(Cc1ccccc1)=C(c1ccc(O)cc1)c1ccc(OCCN2CCCC2)cc1
pIC50 (Estrogen receptor [4]): 7.70 | Ratio IC50 (Homo sapiens [5]): 12 | pIC50 (MCF7 [6]): > 6.60 | Ratio IC50 [7]: 80 | Ratio IC50 (Homo sapiens [8]): 900

Compound: CN1CCN(CCOc2ccc(C(=C(C#N)c3ccccc3)c3ccc(OCCN4CCN(C)CC4)cc3)cc2)CC1
pIC50 (Estrogen receptor [9]): < 5.00
